The values below come from the Kinase Knowledgebase extract (Sharma et al. 2016).

Molecules are shown by their SMILES.

For this assay, the target named is MAPK14 (UniProt Q16539). Nature of the assay: Inhibition of MAPK14 Kinase Activity.
Sequence of MAPK14 (Q16539 whole entry, looked up): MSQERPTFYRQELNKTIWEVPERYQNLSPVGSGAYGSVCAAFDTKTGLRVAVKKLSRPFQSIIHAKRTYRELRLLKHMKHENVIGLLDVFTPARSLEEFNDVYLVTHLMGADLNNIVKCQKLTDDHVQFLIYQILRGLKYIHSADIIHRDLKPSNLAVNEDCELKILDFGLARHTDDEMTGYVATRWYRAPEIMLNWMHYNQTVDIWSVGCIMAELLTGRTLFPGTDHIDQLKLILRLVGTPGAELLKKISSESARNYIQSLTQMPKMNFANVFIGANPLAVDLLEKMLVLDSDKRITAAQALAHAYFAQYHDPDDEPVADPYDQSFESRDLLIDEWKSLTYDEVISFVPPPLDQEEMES
Turning to `Cc1ccc(CNC(=O)c2ccc(-c3cc(C(=O)NC4CC4)cc(F)c3C)nc2)cc1`, the IC50 (commonly the concentration that inhibits the measured activity by half) was less than 10 µM.

`CCN(C(=O)c1ccc(-c2cc(C(=O)NC3CC3)cc(F)c2C)nc1)C1CCCCC1` displayed a 50% inhibitory concentration (IC50) of less than 10 µM.

For `Cc1c(F)cc(C(=O)NC2CC2)cc1-c1ccc(C(=O)N(C)C2CCCC2)cn1`, the half-inhibitory concentration (IC50) was less than 10 µM.

In turn, `Cc1ccsc1CNC(=O)c1ccc(-c2cc(C(=O)NC3CC3)cc(F)c2C)nc1` yielded an IC50 of less than 10 µM.

`Cc1c(F)cc(C(=O)NC2CC2)cc1-c1ccc(C(=O)N(C)CCC2CCCC2)cn1` yielded an IC50 of less than 10 µM.

Molecule `CCCC(O)C(C)NC(=O)c1ccc(-c2cc(C(=O)NC3CC3)cc(F)c2C)nc1` (stereo not given) had an IC50 of less than 10 µM.

The molecule `Cc1c(F)cc(C(=O)NC2CC2)cc1-c1ccc(C(=O)N2CCCC(C)C2)cn1` (stereo not given) gave a concentration for half-maximal inhibition (IC50) of less than 10 µM.

For the molecule `Cc1ccc(CNC(=O)c2ccc(-c3cc(C(=O)NC4CC4)cc(F)c3C)nc2)c(F)c1F`, the 50% inhibitory concentration (IC50) is less than 10 µM.

The molecule `CCC1CCCCN1C(=O)c1ccc(-c2cc(C(=O)NC3CC3)cc(F)c2C)nc1` (stereo not given) gave an IC50 of less than 10 µM.

Turning to `COc1ccc(NC(=O)c2ccc(-c3cc(C(=O)NC4CC4)ccc3C)nc2)cc1`, the half-inhibitory concentration (IC50) was less than 10 µM.

`Cc1ccc(NC(=O)c2ccnc(N3CCCC3)c2)cc1-c1ccc(C(=O)NCC2CC2)cn1` showed a concentration for half-maximal inhibition (IC50) of less than 10 µM.

Molecule `Cc1c(F)cc(C(=O)NC2CC2)cc1-c1ccc(C(=O)NCc2cccc(Cl)c2F)cn1` gave a 50% inhibitory concentration (IC50) of less than 10 µM.

For `Cc1c(F)cc(C(=O)NC2CC2)cc1-c1ccc(C(=O)NCc2cccc(Cl)c2)cn1`, the IC50 is less than 10 µM.

`Cc1ccc(C(=O)NCC2CC2)cc1-c1ccc(C(=O)Nc2ccccc2CN2CCN(C)CC2)cn1` registered a concentration for half-maximal inhibition (IC50) of less than 10 µM.

For the molecule `Cc1c(F)cc(C(=O)NC2CC2)cc1-c1ccc(C(=O)NCc2ccc(F)cc2F)cn1`, the IC50 is less than 10 µM.

For the molecule `Cc1c(F)cc(C(=O)NC2CC2)cc1-c1ccc(C(=O)NCc2cc(F)cc(F)c2F)cn1`, the IC50 is less than 10 µM.

In turn, `Cc1c(F)cc(C(=O)NC2CC2)cc1-c1ccc(C(=O)NCCC(F)(F)F)cn1` returned an IC50 of less than 10 µM.

Take `CCNC(=O)c1ccc(-c2cc(C(=O)NC3CC3)cc(F)c2C)nc1`: the IC50 is less than 10 µM.

`Cc1cccc(CNC(=O)c2ccc(-c3cc(C(=O)NC4CC4)cc(F)c3C)nc2)c1` returned an IC50 of less than 10 µM.

In the case of `Cc1ccc(NC(=O)c2ccoc2)cc1-c1ccc(C(=O)NCc2cccc(NS(C)(=O)=O)c2)cn1`, the 50% inhibitory concentration (IC50) was less than 10 µM.

For `Cc1c(F)cc(C(=O)NC2CC2)cc1-c1ccc(C(=O)NCC(F)c2ccccc2)cn1` (stereo not given), the half-inhibitory concentration (IC50) is less than 10 µM.

`Cc1ccccc1CNC(=O)c1ccc(-c2cc(C(=O)NC3CC3)cc(F)c2C)nc1` registered an IC50 of less than 10 µM.

With `Cc1c(F)cc(C(=O)NC2CC2)cc1-c1ccc(C(=O)NCc2c(F)ccc(F)c2Cl)cn1`, the half-inhibitory concentration (IC50) is less than 10 µM.

In the case of `Cc1c(F)cc(C(=O)NC2CC2)cc1-c1ccc(C(=O)NCc2ccc(F)cc2)cn1`, the concentration for half-maximal inhibition (IC50) is less than 10 µM.

`Cc1c(F)cc(C(=O)NC2CC2)cc1-c1ccc(C(=O)NCCC(C)(C)C)cn1` returned a half-inhibitory concentration (IC50) of less than 10 µM.

In turn, `COc1ccc(NC(=O)c2ccc(-c3cc(NC(=O)c4ccoc4)ccc3C)nc2)cc1` came in with an IC50 of less than 10 µM.

As to `Cc1c(F)cc(C(=O)NC2CC2)cc1-c1ccc(C(=O)NCc2ccccc2F)cn1`, the IC50 is less than 10 µM.

`CCCC(C)(C)NC(=O)c1ccc(-c2cc(C(=O)NC3CC3)cc(F)c2C)nc1`: the concentration for half-maximal inhibition (IC50) was less than 10 µM.

Molecule `Cc1c(F)cc(C(=O)NC2CC2)cc1-c1ccc(C(=O)N2CCC(C)C2(C)C)cn1` (stereo not given) yielded an IC50 of less than 10 µM.

As for `Cc1c(F)cc(C(=O)NC2CC2)cc1-c1ccc(C(=O)N2CCC(C)CC2)cn1`, the IC50 was less than 10 µM.

Consider `Cc1ccc(C(=O)NCC2CC2)cc1-c1ccc(C(=O)NCC2CC2)cn1`, for which the half-inhibitory concentration (IC50) is less than 10 µM.

With `Cc1c(F)cc(C(=O)NC2CC2)cc1-c1ccc(C(=O)NC(C)CC(C)C)cn1` (stereo not given), the half-inhibitory concentration (IC50) was less than 10 µM.

The molecule `Cc1c(F)cc(C(=O)NC2CC2)cc1-c1ccc(C(=O)N2CCCC(C)C2C)cn1` (stereo not given) returned an IC50 of less than 10 µM.

With `C/C=C/C(C)(C)NC(=O)c1ccc(-c2cc(C(=O)NC3CC3)cc(F)c2C)nc1`, the half-inhibitory concentration (IC50) is less than 10 µM.

With `COc1cccc(CNC(=O)c2ccc(-c3cc(C(=O)NCC4CC4)ccc3C)nc2)c1`, the IC50 was less than 10 µM.

The molecule `COc1cccc(CNC(=O)c2ccc(-c3cc(NC(=O)c4ccsc4)ccc3C)nc2)c1` gave a 50% inhibitory concentration (IC50) of less than 10 µM.

Take `COc1ccc(NC(=O)c2ccc(-c3cc(C(=O)Nc4nncs4)ccc3C)nc2)cc1`: the IC50 was less than 10 µM.

Turning to `Cc1c(F)cc(C(=O)NC2CC2)cc1-c1ccc(C(=O)NC(C)C2CC2)cn1` (stereo not given), the IC50 is less than 10 µM.

`Cc1c(F)cc(C(=O)NC2CC2)cc1-c1ccc(C(=O)N2CCCC(C)(C)C2)cn1` showed an IC50 of less than 10 µM.

Molecule `Cc1ccc(C(=O)NCC2CC2)cc1-c1ccc(C(=O)NCc2cccc(NS(C)(=O)=O)c2)cn1` displayed an IC50 of less than 10 µM.

Turning to `CCC(C)(CC)NC(=O)c1ccc(-c2cc(C(=O)NC3CC3)cc(F)c2C)nc1`, the half-inhibitory concentration (IC50) is less than 10 µM.

`Cc1cccc(NC(=O)c2ccc(-c3cc(C(=O)NC4CC4)cc(F)c3C)nc2)c1` yielded an IC50 of less than 10 µM.

With `Cc1ccc(C(=O)Nc2nccs2)cc1-c1ccc(C(=O)Nc2ccccc2CN2CCN(C)CC2)cn1`, the IC50 is less than 10 µM.

In turn, `Cc1c(F)cc(C(=O)NC2CC2)cc1-c1ccc(C(=O)NCC2CCCC2)cn1` came in with an IC50 of less than 10 µM.

Molecule `Cc1c(F)cc(C(=O)NC2CC2)cc1-c1ccc(C(=O)NCc2cc(Cl)ccc2F)cn1` yielded an IC50 of less than 10 µM.

`COc1cccc(CNC(=O)c2ccc(-c3cc(C(=O)NC4CC4)ccc3C)nc2)c1` had a half-maximal inhibitory concentration (IC50) of less than 10 µM.

`Cc1ccc(C(=O)Nc2nncs2)cc1-c1ccc(C(=O)NCC2CC2)cn1` displayed an IC50 of less than 10 µM.

`Cc1ccc(C(=O)NC2CC2)cc1-c1ccc(C(=O)Nc2ccccc2CN2CCN(C)CC2)cn1` gave a 50% inhibitory concentration (IC50) of less than 10 µM.

With `Cc1ccc(NC(=O)c2ccoc2)cc1-c1ccc(C(=O)Nc2ccccc2CN2CCN(C)CC2)cn1`, the IC50 is less than 10 µM.

`Cc1c(F)cc(C(=O)NC2CC2)cc1-c1ccc(C(=O)NC2CC2)cn1` displayed a half-inhibitory concentration (IC50) of less than 10 µM.

Consider `Cc1c(F)cc(C(=O)NC2CC2)cc1-c1ccc(C(=O)NCC2CCCCC2)cn1`, for which the 50% inhibitory concentration (IC50) was less than 10 µM.

In the case of `Cc1c(F)cc(C(=O)NC2CC2)cc1-c1ccc(C(=O)N(C)CC(C)C)cn1`, the IC50 was less than 10 µM.

Take `CCCNC(=O)c1ccc(-c2cc(C(=O)NC3CC3)cc(F)c2C)nc1`: the IC50 was less than 10 µM.

As for `Cc1ccc(NC(=O)c2ccsc2)cc1-c1ccc(C(=O)Nc2ccccc2CN2CCN(C)CC2)cn1`, the IC50 was less than 10 µM.

On to `Cc1c(F)cc(C(=O)NC2CC2)cc1-c1ccc(C(=O)NC(C)Cc2nccs2)cn1` (stereo not given), for which the IC50 was less than 10 µM.

Regarding `Cc1c(F)cc(C(=O)NC2CC2)cc1-c1ccc(C(=O)NCc2cccc(C(F)(F)F)c2)cn1`, the half-maximal inhibitory concentration (IC50) is less than 10 µM.

Turning to `CCC1CCCN(C(=O)c2ccc(-c3cc(C(=O)NC4CC4)cc(F)c3C)nc2)C1` (stereo not given), the IC50 is less than 10 µM.

With `Cc1c(F)cc(C(=O)NC2CC2)cc1-c1ccc(C(=O)NCc2cc(F)c(F)cc2F)cn1`, the IC50 is less than 10 µM.

`Cc1ccc(NC(=O)c2ccsc2)cc1-c1ccc(C(=O)NCc2cccc(NS(C)(=O)=O)c2)cn1`: the IC50 was less than 10 µM.

The molecule `CCC1(C)CCCCN1C(=O)c1ccc(-c2cc(C(=O)NC3CC3)cc(F)c2C)nc1` (stereo not given) came in with an IC50 of less than 10 µM.

`CCN(C(=O)c1ccc(-c2cc(C(=O)NC3CC3)cc(F)c2C)nc1)C(C)C` came in with an IC50 of less than 10 µM.

The molecule `Cc1c(F)cc(C(=O)NC2CC2)cc1-c1ccc(C(=O)NCCOC(C)(C)C)cn1` displayed a concentration for half-maximal inhibition (IC50) of less than 10 µM.

`Cc1ccc(NC(=O)c2ccc(-c3cc(C(=O)NC4CC4)cc(F)c3C)nc2)cc1` came in with an IC50 of less than 10 µM.

`Cc1ccc(CNC(=O)c2ccc(-c3cc(C(=O)NC4CC4)cc(F)c3C)nc2)o1` showed an IC50 of less than 10 µM.

Molecule `CCC1CC1CNC(=O)c1ccc(-c2cc(C(=O)NC3CC3)cc(F)c2C)nc1` (stereo not given) returned an IC50 of less than 10 µM.

`Cc1c(F)cc(C(=O)NC2CC2)cc1-c1ccc(C(=O)NCc2ccccc2Cl)cn1` returned a 50% inhibitory concentration (IC50) of less than 10 µM.

As to `Cc1c(F)cc(C(=O)NC2CC2)cc1-c1ccc(C(=O)NCc2cc(F)ccc2F)cn1`, the IC50 was less than 10 µM.

Turning to `Cc1c(F)cc(C(=O)NC2CC2)cc1-c1ccc(C(=O)NCc2cccc(F)c2F)cn1`, the IC50 is less than 10 µM.

Consider `Cc1c(F)cc(C(=O)NC2CC2)cc1-c1ccc(C(=O)NCc2ccc(Cl)cc2F)cn1`, for which the 50% inhibitory concentration (IC50) is less than 10 µM.

Turning to `Cc1c(F)cc(C(=O)NC2CC2)cc1-c1ccc(C(=O)NCc2nccs2)cn1`, the half-maximal inhibitory concentration (IC50) was less than 10 µM.

Molecule `Cc1ccc(C(=O)Nc2nncs2)cc1-c1ccc(C(=O)NCc2cccc(NS(C)(=O)=O)c2)cn1` yielded a half-maximal inhibitory concentration (IC50) of less than 10 µM.

In the case of `CCC(C)NC(=O)c1ccc(-c2cc(C(=O)NC3CC3)cc(F)c2C)nc1` (stereo not given), the half-maximal inhibitory concentration (IC50) is less than 10 µM.

The molecule `Cc1csc(CNC(=O)c2ccc(-c3cc(C(=O)NC4CC4)cc(F)c3C)nc2)n1` showed a 50% inhibitory concentration (IC50) of less than 10 µM.

`Cc1c(F)cc(C(=O)NC2CC2)cc1-c1ccc(C(=O)NCc2ccc(Cl)cc2)cn1`: the IC50 is less than 10 µM.

Turning to `Cc1c(F)cc(C(=O)NC2CC2)cc1-c1ccc(C(=O)NCc2c(F)ccc(Cl)c2F)cn1`, the half-inhibitory concentration (IC50) was less than 10 µM.

Consider `CC(C)=CCNC(=O)c1ccc(-c2cc(C(=O)NC3CC3)cc(F)c2C)nc1`, for which the IC50 was less than 10 µM.

`Cc1c(F)cc(C(=O)NC2CC2)cc1-c1ccc(C(=O)NCc2ccccc2)cn1` had a half-maximal inhibitory concentration (IC50) of less than 10 µM.

Consider `Cc1ccc(C(=O)Nc2cccc(-c3ccccn3)c2)cc1-c1ccc(C(=O)NCC2CC2)cn1`, for which the 50% inhibitory concentration (IC50) is less than 10 µM.

In turn, `Cc1c(F)cc(C(=O)NC2CC2)cc1-c1ccc(C(=O)NCc2ccccc2C(F)(F)F)cn1` yielded an IC50 of less than 10 µM.

In turn, `CCCC(O)C(C)(C)NC(=O)c1ccc(-c2cc(C(=O)NC3CC3)cc(F)c2C)nc1` (stereo not given) gave an IC50 of less than 10 µM.

Regarding `Cc1c(F)cc(C(=O)NC2CC2)cc1-c1ccc(C(=O)NC2CC2(C)C)cn1` (stereo not given), the 50% inhibitory concentration (IC50) was less than 10 µM.

Regarding `Cc1c(F)cc(C(=O)NC2CC2)cc1-c1ccc(C(=O)N(C)C2(C)CCCC2)cn1`, the IC50 was less than 10 µM.

Consider `Cc1c(F)cc(C(=O)NC2CC2)cc1-c1ccc(C(=O)N(C)C(C)C)cn1`, for which the IC50 is less than 10 µM.

`Cc1c(F)cc(C(=O)NC2CC2)cc1-c1ccc(C(=O)NCc2ccc(F)c(F)c2)cn1` showed a half-inhibitory concentration (IC50) of less than 10 µM.

The molecule `COC(C)(C)CNC(=O)c1ccc(-c2cc(C(=O)NC3CC3)cc(F)c2C)nc1` returned an IC50 of less than 10 µM.
